Patent publication US20090285893A1, “TREATMENT OF HEART FAILURE IN WOMEN” (The Procter & Gamble Company, priority 2008, published 2009)

How the values were obtained:
Assay type in all cases: in vivo, human
[1] = system: post-menopausal women with heart failure; test: six minute walking test (6MWT), exercise tolerance; settings: for 6MWT distance walked: 300 mcg/day transdermal patch
Description: (§1) Thirty-two (32) patients enrolled in the trial. […] Testosterone was administered to the patients as Intrinsa, which is available in Europe.
(§2) The clinical trial design involved: (A) evaluation of inclusion/exclusion criteria and study agreement; (B) visit (blood pressure, heart rate and NYHA classification); (C) six minute walking test, endothelial function, ergospirometry (when possible), muscle strength (isometric and isokinetic) and blood samples; and then (D) randomization to testosterone or placebo. The following follow-ups were conducted: six weeks (B); twelve weeks (B+C); 18 weeks (B); and 24 weeks (B+C).
In the 6MWT, each patient started by standing at a known beginning location point. Each patient then walked as much as possible within a 6-minute timeframe. At the end of the 6-minute timeframe, the ending location of each patient was identified. The distance each patient walked was calculated by measuring (in meters) the distance between the beginning and end points for each patient.

[2] = system: post-menopausal women with heart failure; test: NYHA classification improvement
Description: as §1, §2
NYHA Classification was determined for each individual at three months and at six months of treatment.

[3] = system: post-menopausal women with heart failure; test: muscle isokinetic strength, peak torque
Description: as §1, §2
Isokinetic strength was assessed by evaluating the highest peak torque achieved in a five maximal repetition test of concentric knee extension/flexion performed at 90 degree/sec. The range of motion was 50°. Results are reported at Tables 11-12 and FIGS. 11-13.

[4] = system: post-menopausal women with heart failure; test: maximal oxygen consumption (MVO2) by ergospirometry
Description: Thirty-two (32) patients enrolled in the trial.
The following follow-ups were conducted: six weeks (B); twelve weeks (B+C); 18 weeks (B); and 24 weeks (B+C).
Maximal oxygen consumption (“MVO2;” also “VO2 max”) is the maximum volume of oxygen that the body can consume during intense, whole-body exercise, while breathing air at sea level. This volume is expressed as a rate, which is in ml/kg/min. As oxygen consumption is linearly related to energy expenditure, the measurement of oxygen consumption is an indirect measurement of an individual's maximal capacity to do work aerobically.

[5] = system: post-menopausal women with heart failure; test: drop-outs and adverse events during the clinical study; settings: testosterone group of 20 patients
Description: as §1
During the clinical study, two patients dropped out of the testosterone group, and one patient dropped out of the placebo group. […] The patient who dropped out of the placebo group was a no-show at the 6-week meeting and was reported to have stopped the treatment. Of the testosterone group, six patients referred mild skin irritation at the patch site and continued therapy. Of the placebo group, two patients referred mild skin irritation at the patch site and continued therapy. […] These two patients continued the testosterone treatment. Two patients in the placebo group had worsening heart failure that required hospital admission (one patient had one episode of worsening heart failure; the other patient had two episodes of worsening heart failure). These two patients continued with the patch.

[6] = system: post-menopausal women with heart failure; test: high-density lipoprotein (HDL) measurement
Description: as §1, §2
High-density lipoprotein (“HDL”) was measured.

[7] = system: post-menopausal women with heart failure; test: muscle isometric strength, maximal voluntary contraction (MVC)
Description: as §1, §2
Isometric strength was the highest force developed by patients in three, 5-second maximal voluntary contractions (“MVC”) separated by 1 minute of rest. The knee angle was fixed at 80° (full extension considered 0°). Results are reported at Tables 9-10 and FIGS. 8-10.

C[C@]12CC[C@H]3[C@@H](CCC4=CC(=O)CC[C@@]43C)[C@@H]1CC[C@@H]2O [Testosterone, testosterone]
6MWT percent change from baseline ([1]; 3 months): 35.7% change
6MWT change in distance walked ([1]; 3 months vs baseline): 93 Δ m
6MWT distance walked ([1]; 3 months): 353 m
6MWT percent change from baseline ([1]; 6 months): 39.2% change
6MWT change in distance walked ([1]; 6 months vs baseline): 102 Δ m
6MWT distance walked ([1]; 6 months): 362 m
6MWT distance walked ([1]; baseline, testosterone group): 260 m
Percent of patients with improvement of NYHA Class and/or improvement of >15% 6 MWT (% Response) ([2]; 6 months): 80%
Percent change in NYHA Class of patients: NYHA 0 ([2]; during 6 months of treatment): 50%
Percent change in NYHA Class of patients: NYHA + 1 ([2]; during 6 months of treatment): 11%
Percent change in NYHA Class of patients: NYHA − 1 ([2]; during 6 months of treatment): 38.8%
isokinetic strength, peak torque ([3]; 3 months): 58.85 N/m
peak torque percent change from baseline ([3]; 3 months): 42.32% change
isokinetic strength, peak torque ([3]; 6 months): 63.82 N/m
peak torque percent change from baseline ([3]; 6 months): 54.34% change
isokinetic strength, peak torque ([3]; baseline, testosterone group): 41.35 N/m
MVO2 percent change from baseline ([4]; 3 months): 21% change
MVO2 percent change from baseline ([4]; 6 months): 28% change
MVO2 percent change from baseline ([4]; 6 months, listed as testosterone): over 25 % change
maximal oxygen consumption peak (MVO2) ([4]; baseline, testosterone group): 10.54 mL/min/kg
patients who dropped out [5]: two
patients with generalized prurigo (without lesions on the skin), discontinued treatment after 3 weeks [5]: one
patients with mild skin irritation at the patch site, continued therapy [5]: six
patients with one episode of worsening of heart failure requiring hospital admission ([5]; during the follow-up): Two
HDL Percent Changes ([6]; 3 months): 19%
HDL level ([6]; 3 months): 43.24 mg/dL
HDL Percent Changes ([6]; 6 months): 25%
HDL level ([6]; 6 months): 43.15 mg/dL
HDL level ([6]; baseline, testosterone group): 36.9 mg/dL
MVC percent change from baseline ([7]; 3 months): 37.8% change
isometric strength, maximal voluntary contraction (MVC) ([7]; 3 months): 89.4 N
MVC percent change from baseline ([7]; 6 months): 47.6% change
isometric strength, maximal voluntary contraction (MVC) ([7]; 6 months): 95.7 N
isometric strength, maximal voluntary contraction (MVC) ([7]; baseline, testosterone group): 64.85 N
